Laboratory results from patent US7951979B2, “2,4,6-trisubstituted phenols having anesthetic properties” (University of Iowa Research Foundation, priority 2006, dated 2011).

Experiments:
[1] = tested on: rats; assay: i.v. injection into the lateral tail vein of rats, loss of righting reflex / anesthesia
Procedure: Compound 1 was formulated in 16% Cremophor EL solution in water at a concentration of approximately 15 mg/ml and tested in rats as follows.
Approximately 15 mg/kg of Compound 1 in the suspension were injected into the lateral tail vein of two rats (weight 330-340 g).

[2] = tested on: GABA receptors; assay: in vitro assay for direct GABA activation; type: cell-based; conditions: FIG. 2
Excerpt: Propofol and analogs are known to activate GABA receptors (see, e.g., Trapani et al., J. Med. Chem. 1998, 41, 1846-1854, incorporated herein by reference). While the relationship between GABA activation and anesthetic activity is not completely clear, it is believed that the ability of a compound to directly activate GABA receptors may be related to the anesthetic, sedative, and/or anxiolytic activity of the compound. Compounds of the invention can be tested in in vitro electrophysiological assays to determine the ability of the compound to activate GABA receptors.
Compound 1 was synthesized as described in Example 1. The compound was tested in an in vitro assay for direct GABA activation.

[3] = Rat 1, approximately 15 mg/kg i.v. (lateral tail vein), 16% Cremophor EL in water
[4] = rat, conditions similar to Example 2 (similar dose and route of administration)

In the case of `CC(C)c1cc(C(O)C(F)(F)F)cc(C(C)C)c1O` (stereo not drawn) [Compound 1, 2,6-diisopropyl-4-(2,2,2-trifluoro-1-hydroxy-ethyl)-phenol], the “time post-injection at which the rat appeared normal” value [1, 3] is reported as “about 7.5 minutes”, the “total time of loss of righting reflex” value [1, 3] is reported as “about 3.5 minutes” and the “total time of loss of righting reflex” value ([1]; Rat 2 (agitated prior to injection), approximately 15 mg/kg i.v. (lateral tail vein), 16% Cremophor EL in water) is reported as “about 2.0 minutes”. For the same compound, the duration of anesthesia ([1]; rats, about 15 mg/kg i.v.) was 2 to 3 min, the “tremors, agitation or excitement on injection” value ([1]; rats, about 15 mg/kg i.v.) was “without tremors, agitation or excitement” and the overall anesthetic activity ([1]; rats, i.v.) was “potent short-acting i.v. anesthetic”. For the same compound, the “direct activation of GABA receptors” value [2] was “capable of direct activation of GABA receptors”.
For `CC(C)c1cc(C(=O)C(F)(F)F)cc(C(C)C)c1O` [Compound 2, 2,2,2-trifluoro-1-(4-hydroxy-3,5-diisopropyl-phenyl)-ethanone], the induction of anesthesia [1, 4] was “did not appear to induce anesthesia” and the “tremors and shaking upon i.v. injection” value [1, 4] was “caused tremors and shaking”.
